Test results reported in patent US20070219208A1, “Methods for Treating Cancer” (priority 2006, published 2007).
“Also recorded” adds a separate entry of the source.

How the values were obtained:
[1] = system: cyclin D1, cyclin E and p27 in MCF-7 cells; assay: Cell cycle protein levels by Western analysis (cyclin D1, cyclin E, p27); assay type: cell-based; details: 1400 W 10 μM or mevalonate 20 μM
Method: A (Table): The cell cycle distribution of MCF-7 cells treated with either simvastatin or fluvastatin (5-10 μM) for 40 h in the presence or 1400 W (10 μM) or mevalonate (20 μM). The cell sorting was performed by flow cytometry as described in “Materials and Methods.” B: Cells were treated with simvastatin or fluvastatin (10 μM) in the presence or absence of 1400 W (10 μM) or mevalonate (20 μM) for 40 h and cyclins D1 and E protein levels were measured by the Western analysis using the corresponding polyclonal or monoclonal antibodies. Data are representative of three separate experiments.
After treatment with statins, cells were washed with ice-cold DPBS and resuspended in 150 μl of radioimmune precipitation assay buffer (20 mM Tris-HCl, pH 7.4, 2.5 mM EDTA, 1% Triton X-100, 1% sodium deoxycholate, 1% SDS, 100 mM NaCl, 100 mM sodium fluoride) containing 1 mM sodium vanadate, 10 μg/ml aprotinin, 10 μg/ml leupeptin, and 10 μg/ml pepstatin inhibitors. Cells were homogenized by passing the suspension through a 25-gauge needle (20 strokes). The lysate was centrifuged at 750×g for 10 min at 4° C. to pellet out the nuclei. The remaining supernatant was centrifuged for 30 min at 12,000×g. Protein was determined using the Lowry method and 50 μg of the lysate was used for the Western blot analysis. […] The band was detected using the ECL method (Amersham Biosciences).

[2] = system: NO2-/NO3- levels in MCF-7 cells; assay: Nitrite and nitrate measurements by chemiluminescence (NO analyzer); assay type: cell-based; details: with simvastatin or fluvastatin (10 μM), 40 h; mevalonate 20 μM, 1400 W 10 μM, sepiapterin 50 μM; compared to statin alone
Method: Briefly, following treatments, cells were washed three times with DPBS after aspirating the medium. To this, 1 ml of Hanks' balanced salt mixture containing 25 μM L-arginine was added and incubated for 30 min at 37° C. The medium was collected and centrifuged for 5 min at 5000 rpm, and 50 μl of the clear supernatant was used for nitrate and nitrite analysis. Each sample was analyzed in triplicate.

[3] = system: MCF-7 cells; assay: Apoptosis by TUNEL assay; assay type: cell-based; details: with simvastatin or fluvastatin 5-10 μM, 48 h; 1400 W 10 μM, sepiapterin 50 μM, mevalonate 20 μM
Source text: Measurement of Apoptosis by TUNEL Assay:
The terminal deoxynucleotidyl transferase-mediated nick-end labeling (TUNEL) assay was used for microscopic detection of apoptosis (Kotamraju S, et al. J Biol Chem, 277:17179-87, 2002). This assay is based on labeling of 3′ free hydroxyl ends of the fragmented DNA with fluorescein-dUTP catalyzed by terminal deoxynucleotidyl transferase. Procedures were followed according to a commercially available kit (ApoAlert) from Clontech. […] The apoptotic cells were detected by fluorescence microscopy equipped with rhodamine and FITC filters. The quantification of apoptosis was performed using the Metamorph image analysis package.
Under these conditions, NO2^−/NO3^− levels were decreased (FIG. 4B). […] Further verification that iNOS is involved in […] NO was obtained from inhibition of geranylgeranylation and farnesylation. […] In contrast, FTI-277 (farnesylation inhibitor) and sepiapterin had no effect on NO2^−/NO3^− levels (FIG. 4C). […] In the TUNEL assay, cells were treated with simvastatin or fluvastatin (5-10 μM) for 48 h in the presence or absence of 1400 W (10 μM), sepiapterin (50 μM) or mevalonate (20 μM) and stained for TUNEL-positive cells as an index of DNA fragmentation monitored by fluorescence microscopy (original magnification, ×100). Photographs were taken for the overlaid images of propidium iodide-and FITC-stained cells (TUNEL-positive cells). Yellow and red denote apoptotic and nonapoptotic cells, respectively. We observed that the TUNEL positive staining was enhanced in statin-treated MCF-7 cells. […] Pretreatment with 1400 W or mevalonate caused a decrease in the TUNEL positive cells.

[4] = system: iNOS in MCF-7 cells; assay: iNOS mRNA (RT-PCR) and protein (Western) levels; assay type: cell-based; details: mevalonate 20 μM
Method: After treatment with statins, cells were washed with ice-cold DPBS and resuspended in 150 μl of radioimmune precipitation assay buffer (20 mM Tris-HCl, pH 7.4, 2.5 mM EDTA, 1% Triton X-100, 1% sodium deoxycholate, 1% SDS, 100 mM NaCl, 100 mM sodium fluoride) containing 1 mM sodium vanadate, 10 μg/ml aprotinin, 10 μg/ml leupeptin, and 10 μg/ml pepstatin inhibitors. Cells were homogenized by passing the suspension through a 25-gauge needle (20 strokes). The lysate was centrifuged at 750×g for 10 min at 4° C. to pellet out the nuclei. The remaining supernatant was centrifuged for 30 min at 12,000×g. Protein was determined using the Lowry method and 50 μg of the lysate was used for the Western blot analysis. Proteins were resolved using the SDS-polyacrylamide gels and blotted onto nitrocellulose membranes. Membranes were washed with TBS (140 mM NaCl, 50 mM Tris-HCl, pH 7.2) containing 0.1% Tween 20 (TBST) and 5% skim milk to block the non-specific protein binding. Membranes were incubated with 1 μg/ml rabbit anti-iNOS polyclonal antibody (Abeam, Cambridge, Mass.), mouse anti-cyclin D1 antibody, mouse anti-cyclin E antibody (BD Biosciences, San Jose, Calif.) or rabbit anti-p27 antibody (Chemicon International, Temecula, Calif.) in TBST for overnight at 4° C., washed 5 times with TBST, and then incubated with goat anti-rabbit or rabbit anti-mouse IgG-horseradish peroxidase-conjugated secondary antibody (1:5,000) for 1.5 h at room temperature. The band was detected using the ECL method (Amersham Biosciences).
Following the treatments, medium was aspirated and 1 ml of TRIzol reagent (Invitrogen) was added and total RNA was extracted using the manufacturer's protocol. Five μg of RNA was used for the first strand cDNA synthesis using a first strand cDNA synthesis kit (Amersham Biosciences). […]

[5] = system: MCF-7 breast cancer cells; assay: MTT reduction cytotoxicity assay in MCF-7 cells; details: pretreatment before simvastatin or fluvastatin (10 μM), 48 h; mevalonate 20 μM, 1400 W 10 μM
Method: MTT Reduction Cytotoxicity Assay:
MTT is taken up by cells and is reduced to a colored formazon product that can be detected by spectrophotometry (max=562 nm). Reduction of MTT is dependent upon the mitochondrial respiratory function, and thus measures the relative number of viable cells in the culture. After the treatment was completed, MCF-7 cells were washed twice with DPBS and taken in a ml of MEM without FBS and incubated with 5 mg/ml MTT solution for 1 h at 37° C. Medium was removed and cells were solubilized in DMSO. The absorption was measured at 562 nm with reference at 630 nm.
We assessed the effectiveness of simvastatin and fluvastatin to induce cytotoxicity in MCF-7 cells. MCF-7 breast cancer cells were treated with fluvastatin or simvastatin at different concentrations (0.5-20 μM) for 24-48 h. The changes in the number of viable cells were determined using the MTT assay that monitors the intracellular conversion of MTT to formazon spectrophotometrically max=562 nm).

Structure (SMILES): CC(O)(CCO)CC(=O)O (centres unmarked) [mevalonate]
- effect on statin-induced decrease of cyclin D1 and cyclin E [1]: restored in part
- effect on statin-induced NO / NO2-/NO3- levels [2]: inhibited; also recorded: suppressed
- effect on statin-induced TUNEL-positive cells (proapoptotic effect) [3]: decrease
- effect on statin-induced iNOS [4]: inhibited
- effect on statin-induced MCF-7 cell cytotoxicity (MTT assay) [5]: significantly reversed
